Values joined by “and” are separate entries in the source; they are usually repeats but may differ in a detail not shown here. Equal values may be shown once. Read-outs that look alike come from different tables or passages of the source.

The values below come from US12060333B2 (Hoffmann-La Roche Inc., priority 2021, dated 2024).

Assay [1] addresses SARS-CoV 3CLpro (Severe acute respiratory syndrome coronavirus, UniProt P0C6X7). Description: biochemical.
Assay [2] concerns the target SARS-CoV-2 3CLpro (Severe acute respiratory syndrome coronavirus 2, UniProt P0DTD1). In words: biochemical.
For assay [3], the target named is HCoV-229E 3CLpro (Human coronavirus 229E, UniProt P0C6X1). In words: HCoV-229E 3CLpro inhibition assay (FRET). The note with it: protease 25 nM, FRET substrate 15 μM, pre-incubated 1 hr, read-out: 229E (activity in different coronaviruses). Type of assay: biochemical. The protocol: HCoV-229E 3CL^pro inhibition assay
The HCoV-229E 3CL^pro was expressed in E. coli BL21 (DE3) with the protein sequence of
For the HCoV-229E 3CL^pro assay, 2 μL of […] recombinant HCoV-229E 3CL protease were mixed with serial dilutions of each compound in 4 μL assay buffer containing 40 mM HEPES, pH=8.0, 1 mM CHAPS, 150 mM NaCl, 1 mM EDTA, 1 mM TCEP in a well of a 384-well plate and pre-incubated at rt for 1 hr. The custom-synthesized fluorogenic 3CL^pro peptide substrate used in the assay is as follows: FAM-[…]-TAMRA (peptide sequence according to SEQ ID NO: 3). This FRET-based substrate contains a FAM fluorophore attached at the N-terminus of a canonical 3CL^pro peptide substrate. The fluorophore is internally quenched by the TAMRA. The reaction was initiated by the addition of 10 μL of the substrate with a final concentration of 15 μM and each well was incubated at RT for 30 mins. The final concentration of the protease used at the assay was 25 nM and each compound was at a final concentration range of 100-0.0016 μM. The IC50 value which is the value causing 50% inhibition of the catalytic activity of the HCoV-229E 3CL^pro was calculated by four parameters equation analysis.

Assay [4] deals with MERS-CoV 3CLpro (Middle East respiratory syndrome-related coronavirus, UniProt K9N7C7). Description: biochemical.
The mark [5] stands for this setting: IC50 (μM), SARS-CoV-2 3CLPro assay.

Take `Cc1cc(C(=O)N[C@@H](CC2(C)CC2)C(=O)NN(C[C@@H]2CCNC2=O)C(=O)[C@H](F)Cl)no1` [Example 70, N-[(1S)-2-[2-[(2R)-2-chloro-2-fluoro-acetyl]-2-[[(3S)-2-axopyrrolidin-3-yl]methyl]hydrazino]-1-[(1-methylcyclopropyl)methyl]-2-axo-ethyl]-5-methyl-isoxazole-3-carboxamide]: the IC50 amounted to 94 nM in assay [1], 0.059 µM in assay [2] (setting [5]), 24 nM in assay [3] and 54 nM in assay [4].

Consider `CC(C)C[C@H](NC(=O)c1cc2ccccc2[nH]1)C(=O)NN(C[C@@H]1CCNC1=O)C(=O)CCl` (single isomer, unassigned) [Example 51-A], for which the IC50 in assay [1] was 15 nM; in assay [2] (setting [5]) it was 0.004 µM and 0.0027 µM; in assay [3] it was 17 nM; in assay [4], 60 nM.

For `CC1(C[C@H](NC(=O)c2cc(C(F)F)on2)C(=O)NN(C[C@@H]2CCNC2=O)C(=O)[C@H](F)Cl)CC1` [Example 100, N-[(1S)-2-[2-[(2R)-2-chloro-2-fluoro-acetyl]-2-[[(3S)-2-axopyrrolidin-3-yl]methyl]hydrazino]-1-[(1-methylcyclopropyl)methyl]-2-axo-ethyl]-5-(difluoromethyl)isoxazole-3-carboxamide], the IC50 amounted to 31 nM in assay [1], 0.024 µM in assay [2] (setting [5]), 28 nM in assay [3] and 94 nM in assay [4].

For `CC(C)C[C@H](NC(=O)c1cc2ccccc2[nH]1)C(=O)NN(CCC(N)=O)C(=O)CCl` [Example 28, N-[(1S)-1-[[(3-amino-3-oxo-propyl)-(2-chloroacetyl)amino]carbamoyl]-3-methyl-butyl]-1H-indole-2-carboxamide], the IC50 is 16 nM in assay [1]; 0.007 µM in assay [2] (read-out: IC50 (μM), SARS-CoV-2 3CLPro assay); 13 nM in assay [3]; 50 nM in assay [4].
